The values that follow come from PubChem BioAssay AID270 (DTP/NCI, 2004).

The subject of this experiment is BDF1 mice, s.c. Lewis lung carcinoma, T/C %. As to the kind of experiment: NCI In Vivo Anticancer Drug Screen. Data for tumor model Lewis Lung Carcinoma (subcutaneous) in B6D2F1 (BDF1) mice. Summed up: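 The value reflects a ratio in which the treated cohort's survival time or tumour size is compared against mice receiving only vehicle.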
[1] abbreviates: endpoint: median survival time, dose: 12.5 mg/kg/injection, schedule: Q01DX009 (ip), vehicle: Klucel (hydroxypropylcellulose) (HPC), higher = longer survival.
[2] abbreviates: endpoint: median survival time, dose: 25.0 mg/kg/injection, schedule: Q01DX009 (ip), vehicle: Klucel (hydroxypropylcellulose) (HPC), higher = longer survival.
The mark [3] stands for this setting: endpoint: mean tumor weight, dose: 750.0 mg/kg/injection, schedule: Q01DX011 (ip), vehicle: other, higher = larger tumour.
[4] abbreviates: endpoint: median survival time, dose: 0.5 mg/kg/injection, schedule: Q01DX009 (ip), vehicle: Klucel (hydroxypropylcellulose) (HPC), higher = longer survival.
[5] abbreviates: endpoint: median survival time, dose: 1.0 mg/kg/injection, schedule: Q01DX009 (ip), vehicle: Klucel (hydroxypropylcellulose) (HPC), higher = longer survival.

Where “and” joins values, the source holds several entries; their conditions need not be identical. Identical values can stand only once. Inconclusive results are not listed.

For `COc1ccc(NC(=O)N(CCCl)N=O)cc1OC`, the T/C (endpoint: median survival time, dose: 1.56 mg/kg/injection, schedule: Q01DX009 (ip), vehicle: Klucel (hydroxypropylcellulose) (HPC), higher = longer survival) is 97 % of control; the T/C (endpoint: median survival time, dose: 3.12 mg/kg/injection, schedule: Q01DX009 (ip), vehicle: Klucel (hydroxypropylcellulose) (HPC), higher = longer survival) was 100 % of control; the T/C (endpoint: median survival time, dose: 6.25 mg/kg/injection, schedule: Q01DX009 (ip), vehicle: Klucel (hydroxypropylcellulose) (HPC), higher = longer survival) is 106 % of control; the T/C under setting [1] was 101 % of control; the T/C under setting [2] was 107 % of control.
Consider `CN(C)[C@@H]1C(=O)C(C(N)=O)=C(O)[C@]2(O)C(=O)C3C(=O)c4c(O)ccc(Cl)c4[C@](C)(O)[C@H]3C[C@@H]12` (some centres not stated), for which the T/C reads like this: under setting [1], 117 % of control; under setting [2], 120 % of control; (endpoint: median survival time, dose: 50.0 mg/kg/injection, schedule: Q01DX009 (ip), vehicle: Klucel (hydroxypropylcellulose) (HPC), higher = longer survival) 102 % of control and 123 % of control.
Take `CCN(CC)Cc1cc(Nc2c3ccccc3nc3cc(Cl)ccc23)ccc1O`: the T/C (endpoint: mean tumor weight, dose: 40.0 mg/kg/injection, schedule: Q01DX011 (ip), vehicle: other, higher = larger tumour) is 48 % of control.
Take `CCOC(=O)C1=NNC(=O)C1`: the T/C was 119 % of control (endpoint: mean tumor weight, dose: 222.0 mg/kg/injection, schedule: Q01DX011 (ip), vehicle: other, higher = larger tumour); 118 % of control (endpoint: mean tumor weight, dose: 333.0 mg/kg/injection, schedule: Q01DX011 (ip), vehicle: other, higher = larger tumour); 75 % of control (endpoint: mean tumor weight, dose: 500.0 mg/kg/injection, schedule: Q01DX011 (ip), vehicle: other, higher = larger tumour); 108 % of control under setting [3].
As for `c1ccc(C2=C(c3ccccc3)C(c3ccccc3)=C(c3ccccc3)C2)cc1`, the T/C is 89 % of control (endpoint: mean tumor weight, dose: 118.0 mg/kg/injection, schedule: Q01DX011 (ip), vehicle: other, higher = larger tumour); 65 % of control (endpoint: mean tumor weight, dose: 178.0 mg/kg/injection, schedule: Q01DX011 (ip), vehicle: other, higher = larger tumour); 92 % of control (endpoint: mean tumor weight, dose: 250.0 mg/kg/injection, schedule: Q01DX011 (ip), vehicle: other, higher = larger tumour); 84 % of control (endpoint: mean tumor weight, dose: 266.0 mg/kg/injection, schedule: Q01DX011 (ip), vehicle: other, higher = larger tumour); 109 % of control (endpoint: mean tumor weight, dose: 400.0 mg/kg/injection, schedule: Q01DX011 (ip), vehicle: other, higher = larger tumour); 124 % of control under setting [3]. Further, the T/C (endpoint: mean tumor weight, dose: 1000.0 mg/kg/injection, schedule: Q01DX011 (ip), vehicle: other, higher = larger tumour) is 60 % of control.
In the case of `COC1CCC(NC(=O)N(CCCl)N=O)CC1` (configuration not stated), the T/C by setting is: (endpoint: median survival time, dose: 16.0 mg/kg/injection, schedule: Q01DX001 (ip), vehicle: saline with Tween-80, higher = longer survival) 121 % of control; (endpoint: median survival time, dose: 82.0 mg/kg/injection, schedule: Q01DX001 (ip), vehicle: saline with Tween-80, higher = longer survival) 111 % of control.
Regarding `CCC[CH2][Sn]1([CH2]CCC)[N](S(=O)(=O)c2ccc(C)cc2)c2ccccc2[N]1S(=O)(=O)c1ccc(C)cc1`, the T/C (endpoint: median survival time, dose: 1.5 mg/kg/injection, schedule: Q01DX009 (ip), vehicle: Klucel (hydroxypropylcellulose) (HPC), higher = longer survival) is 111 % of control; the T/C (endpoint: median survival time, dose: 3.0 mg/kg/injection, schedule: Q01DX009 (ip), vehicle: Klucel (hydroxypropylcellulose) (HPC), higher = longer survival) is 90 % of control; the T/C (endpoint: median survival time, dose: 6.0 mg/kg/injection, schedule: Q01DX009 (ip), vehicle: Klucel (hydroxypropylcellulose) (HPC), higher = longer survival) was 101 % of control.
On to `CCOC(=O)C(Br)CC` (configuration not stated), for which, where the note is “endpoint: mean tumor weight, dose: 148.0 mg/kg/injection, schedule: Q01DX011 (ip), vehicle: other, higher = larger tumour”, the T/C is 77 % of control.
`Cc1ccc(N=NN(C)C)cc1`: the T/C runs as follows: (endpoint: mean tumor weight, dose: 15.0 mg/kg/injection, schedule: Q01DX011 (ip), vehicle: other, higher = larger tumour) 67 % of control; (endpoint: mean tumor weight, dose: 60.0 mg/kg/injection, schedule: Q01DX011 (ip), vehicle: other, higher = larger tumour) 57 % of control.
For the molecule `CNC(C)C(O)c1ccccc1` (configuration not stated), for the setting “endpoint: mean tumor weight, dose: 66.6 mg/kg/injection, schedule: Q01DX011 (ip), vehicle: saline, higher = larger tumour”, the T/C was 109 % of control.
Take `C/C=C(\C)C(=O)N/N=C\c1cc(Cl)cc(Cl)c1O`: the T/C (endpoint: median survival time, dose: 12.5 mg/kg/injection, schedule: Q01DX009 (ip), vehicle: olive oil, sesame oil, peanut oil, higher = longer survival) is 102 % of control; the T/C (endpoint: median survival time, dose: 25.0 mg/kg/injection, schedule: Q01DX009 (ip), vehicle: olive oil, sesame oil, peanut oil, higher = longer survival) was 112 % of control; the T/C (endpoint: median survival time, dose: 50.0 mg/kg/injection, schedule: Q01DX009 (ip), vehicle: olive oil, sesame oil, peanut oil, higher = longer survival) is 90 % of control; the T/C (endpoint: median survival time, dose: 200.0 mg/kg/injection, schedule: Q01DX009 (ip), vehicle: olive oil, sesame oil, peanut oil, higher = longer survival) was 86 % of control.
Regarding `O=C(O)CC(O)(CC(=O)O)C(=O)O.[Ga]`, the T/C by setting is: (endpoint: mean tumor weight, dose: 12.5 mg/kg/injection, schedule: Q01DX011 (ip), vehicle: saline, higher = larger tumour) 57 % of control; (endpoint: mean tumor weight, dose: 25.0 mg/kg/injection, schedule: Q01DX011 (ip), vehicle: saline, higher = larger tumour) 50 % of control; (endpoint: mean tumor weight, dose: 50.0 mg/kg/injection, schedule: Q01DX011 (ip), vehicle: saline, higher = larger tumour) 34 % of control.
Take `COc1cc2cc(c1Cl)N(C)C(=O)C[C@H](OC(=O)[C@H](C)N(C)C(C)=O)[C@]1(C)O[C@H]1[C@H](C)[C@@H]1C[C@@](O)(NC(=O)O1)[C@H](OC)C=C/C=C(\C)C2`: the T/C is 112 % of control (endpoint: median survival time, dose: 0.04 mg/kg/injection, schedule: Q04DX003 (ip), vehicle: saline, higher = longer survival); 102 % of control (endpoint: median survival time, dose: 0.08 mg/kg/injection, schedule: Q04DX003 (ip), vehicle: saline, higher = longer survival); 110 % of control (endpoint: median survival time, dose: 0.15 mg/kg/injection, schedule: Q04DX003 (ip), vehicle: saline, higher = longer survival); 96 % of control (endpoint: median survival time, dose: 0.6 mg/kg/injection, schedule: Q04DX003 (ip), vehicle: saline, higher = longer survival).
Regarding `CC(C)C[CH2][Pb]([Cl])([CH2]CC(C)C)[CH2]CC(C)C`, the T/C reads like this: (endpoint: median survival time, dose: 0.25 mg/kg/injection, schedule: Q01DX009 (ip), vehicle: Klucel (hydroxypropylcellulose) (HPC), higher = longer survival) 112 % of control; under setting [4], 102 % of control; under setting [5], 93 % of control.
With `Nc1nc(SCc2ccccc2Cl)c2ncn(C3OC(CO)C(O)C3O)c2n1` (configuration not stated), the T/C by setting is: (endpoint: mean tumor weight, dose: 6.3 mg/kg/injection, schedule: Q01DX011 (ip), vehicle: other, higher = larger tumour) 56 % of control; (endpoint: mean tumor weight, dose: 12.5 mg/kg/injection, schedule: Q01DX011 (ip), vehicle: other, higher = larger tumour) 55 % of control; (endpoint: mean tumor weight, dose: 25.0 mg/kg/injection, schedule: Q01DX011 (ip), vehicle: other, higher = larger tumour) 49 % of control; (endpoint: mean tumor weight, dose: 50.0 mg/kg/injection, schedule: Q01DX011 (ip), vehicle: other, higher = larger tumour) 28 % of control.
For `CN(Cc1cnc2nc(N)nc(N)c2n1)c1ccc(C(=O)N[C@@H](CCC(=O)O)C(=O)O)cc1`, the T/C is, setting by setting: (endpoint: mean tumor weight, dose: 0.5 mg/kg/injection, schedule: Q01DX011 (ip), vehicle: alkali diluted with saline, higher = larger tumour) 91 % of control; (endpoint: mean tumor weight, dose: 0.5 mg/kg/injection, schedule: Q01DX011 (ip), vehicle: carboxymethylcellulose (CMC), higher = larger tumour) 97 % of control; (endpoint: mean tumor weight, dose: 0.75 mg/kg/injection, schedule: Q01DX011 (ip), vehicle: alkali diluted with saline, higher = larger tumour) 111 % of control; (endpoint: mean tumor weight, dose: 1.0 mg/kg/injection, schedule: Q01DX011 (ip), vehicle: alkali diluted with saline, higher = larger tumour) 83 % of control; (endpoint: mean tumor weight, dose: 1.0 mg/kg/injection, schedule: Q01DX011 (ip), vehicle: carboxymethylcellulose (CMC), higher = larger tumour) 91 % of control; (endpoint: mean tumor weight, dose: 1.5 mg/kg/injection, schedule: Q01DX011 (ip), vehicle: alkali diluted with saline, higher = larger tumour) 93 % of control. The T/C is, setting by setting: (endpoint: mean tumor weight, dose: 2.0 mg/kg/injection, schedule: Q01DX011 (ip), vehicle: alkali diluted with saline, higher = larger tumour) 72 % of control; (endpoint: mean tumor weight, dose: 2.0 mg/kg/injection, schedule: Q01DX011 (ip), vehicle: carboxymethylcellulose (CMC), higher = larger tumour) 90 % of control; (endpoint: mean tumor weight, dose: 4.0 mg/kg/injection, schedule: Q01DX011 (ip), vehicle: carboxymethylcellulose (CMC), higher = larger tumour) 25 % of control; under setting [4], 107 % of control; (endpoint: median survival time, dose: 0.5 mg/kg/injection, schedule: Q01DX009 (ip), vehicle: saline with Tween-80, higher = longer survival) 89 % of control and 100 % of control; under setting [5], 112 % of control. In addition, the T/C by setting is: (endpoint: median survival time, dose: 1.0 mg/kg/injection, schedule: Q01DX009 (ip), vehicle: saline with Tween-80, higher = longer survival) 93 % of control; (endpoint: median survival time, dose: 1.0 mg/kg/injection, schedule: Q01DX009 (ip), vehicle: saline, higher = longer survival) 100 % of control; (endpoint: median survival time, dose: 2.0 mg/kg/injection, schedule: Q01DX009 (ip), vehicle: saline, higher = longer survival) 102 % of control; (endpoint: median survival time, dose: 4.0 mg/kg/injection, schedule: Q01DX009 (ip), vehicle: Klucel (hydroxypropylcellulose) (HPC), higher = longer survival) 121 % of control; (endpoint: median tumor weight (est.), dose: 0.5 mg/kg/injection, schedule: Q01DX009 (ip), vehicle: saline with Tween-80, higher = larger tumour) 95 % of control; (endpoint: median tumor weight (est.), dose: 1.0 mg/kg/injection, schedule: Q01DX009 (ip), vehicle: saline with Tween-80, higher = larger tumour) 86 % of control. The T/C was 99 % of control (endpoint: median tumor weight (est.), dose: 1.4 mg/kg/injection, schedule: Q01DX011 (ip), vehicle: sodium bicarbonate, higher = larger tumour) and 74 % of control (endpoint: median tumor weight (est.), dose: 2.1 mg/kg/injection, schedule: Q01DX011 (ip), vehicle: sodium bicarbonate, higher = larger tumour).
